Activity calls are given as the source filed them. No cut-off for these calls is given here.
Tests used:
[1] = Toxicity in C57BL/6 mouse infected with Candida albicans SC5314 assessed as animal death at 0.25 mg/kg, ip measured after 7 days; format: organism-based; conditions: in vivo, 168 h, time 7 day
Candida albicans [2] = assay: Synergistic inhibition of hypha formation in Candida albicans SC5314 at 4 to 16 ug/ml incubated for 3 hrs in presence of FLC by inverted phase contrast microscopy; format: functional, organism-based; conditions: dose 4-16 µg/ml
Candida albicans [3] = assay: Synergistic antifungal activity against FLC-resistant Candida albicans 249 assessed as MIC of FLC incubated for 48 hrs by broth microdilution method; format: functional
Candida albicans [4] = assay: Synergistic antifungal activity against FLC-resistant Candida albicans 14 assessed as fungal growth inhibition incubated for 48 hrs in presence of FLC by broth microdilution method; format: functional
[5] = Half life in Sprague-Dawley rat at 5 mg/kg, po by LC-MS/MS analysis; format: ADME, organism-based; conditions: in vivo
Candida albicans [6] = assay: Synergistic antifungal activity against FLC-resistant Candida albicans 249 assessed as fractional inhibitory concentration index incubated for 48 hrs in presence of FLC by broth microdilution method; format: functional
Candida albicans [7] = assay: Synergistic antifungal activity against FLC-resistant Candida albicans 379 assessed as MIC of FLC incubated for 48 hrs by broth microdilution method; format: functional
Candida albicans [8] = assay: Synergistic antifungal activity against FLC-resistant Candida albicans 8 assessed as MIC of FLC incubated for 48 hrs by broth microdilution method; format: functional
[9] = Toxicity in C57BL/6 mouse infected with Candida albicans SC5314 assessed as animal survival at 2 mg/kg, ip measured after 20 days in presence of FLC relative to control; format: organism-based; conditions: in vivo, 480 h, time 20 day
Candida albicans [10] = assay: Synergistic antifungal activity against FLC-resistant Candida albicans 17 assessed as fractional inhibitory concentration index incubated for 48 hrs in presence of FLC by broth microdilution method; format: functional
Candida albicans [11] = assay: Synergistic antifungal activity against FLC-resistant Candida albicans 710506 assessed as MIC of FLC incubated for 48 hrs by broth microdilution method; format: functional
[12] = target: Voltage-gated inwardly rectifying potassium channel KCNH2 (Homo sapiens, UniProt Q12809); assay: Inhibition of hERG measured for 120 secs by electrophysiological method; format: toxicity; conditions: 2 min, time 120 sec
Sequence of Voltage-gated inwardly rectifying potassium channel KCNH2 (Q12809 whole entry): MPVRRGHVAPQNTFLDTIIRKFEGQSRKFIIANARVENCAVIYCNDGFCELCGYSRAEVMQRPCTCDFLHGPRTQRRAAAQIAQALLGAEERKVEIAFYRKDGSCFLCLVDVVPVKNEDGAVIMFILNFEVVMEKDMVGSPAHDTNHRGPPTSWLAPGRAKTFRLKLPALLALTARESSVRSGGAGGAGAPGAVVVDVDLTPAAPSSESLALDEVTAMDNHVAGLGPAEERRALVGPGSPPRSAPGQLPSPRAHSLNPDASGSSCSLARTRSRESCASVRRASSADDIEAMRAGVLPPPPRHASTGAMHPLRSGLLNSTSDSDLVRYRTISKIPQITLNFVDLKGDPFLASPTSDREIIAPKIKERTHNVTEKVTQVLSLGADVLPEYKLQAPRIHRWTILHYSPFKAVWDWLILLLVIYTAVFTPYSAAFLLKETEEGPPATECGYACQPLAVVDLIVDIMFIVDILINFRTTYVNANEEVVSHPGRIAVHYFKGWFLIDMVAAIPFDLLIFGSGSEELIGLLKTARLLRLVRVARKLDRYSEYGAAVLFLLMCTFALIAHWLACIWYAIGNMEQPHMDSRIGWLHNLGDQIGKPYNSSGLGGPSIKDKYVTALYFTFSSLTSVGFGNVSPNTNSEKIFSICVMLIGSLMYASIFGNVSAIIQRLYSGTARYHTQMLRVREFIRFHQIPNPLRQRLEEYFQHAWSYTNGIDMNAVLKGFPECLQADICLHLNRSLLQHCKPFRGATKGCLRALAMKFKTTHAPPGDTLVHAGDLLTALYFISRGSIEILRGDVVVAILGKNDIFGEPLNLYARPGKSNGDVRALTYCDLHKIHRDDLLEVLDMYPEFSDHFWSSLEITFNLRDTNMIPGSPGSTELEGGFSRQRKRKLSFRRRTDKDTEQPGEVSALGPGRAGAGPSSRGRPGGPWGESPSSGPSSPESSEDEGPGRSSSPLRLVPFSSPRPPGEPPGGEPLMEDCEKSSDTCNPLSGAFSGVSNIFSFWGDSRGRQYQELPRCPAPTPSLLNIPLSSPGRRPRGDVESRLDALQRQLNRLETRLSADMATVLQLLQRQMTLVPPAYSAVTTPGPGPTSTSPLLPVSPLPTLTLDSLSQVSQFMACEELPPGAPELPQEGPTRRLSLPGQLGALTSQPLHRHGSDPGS

[13] = Half life in Sprague-Dawley rat at 2 mg/kg, iv by LC-MS/MS analysis; format: ADME, organism-based; conditions: in vivo
Candida albicans [14] = assay: Synergistic antifungal activity against FLC-resistant Candida albicans 1221 assessed as fractional inhibitory concentration index incubated for 48 hrs in presence of FLC by broth microdilution method; format: functional
[15] = Oral bioavailability in Sprague-Dawley rat at 5 mg/kg by LC-MS/MS analysis; format: ADME, organism-based; conditions: in vivo
Candida albicans [16] = assay: Inhibition of biofilm formation of Candida albicans SC5314 at 4 ug/ml incubated for 24 hrs by XTT assay relative to control; format: functional
Candida albicans [17] = assay: Synergistic antifungal activity against FLC-resistant Candida albicans 710554 assessed as MIC of FLC incubated for 48 hrs by broth microdilution method; format: functional
Candida albicans [18] = assay: Synergistic antifungal activity against FLC-resistant Candida albicans 953 assessed as MIC of FLC incubated for 48 hrs by broth microdilution method; format: functional
Candida albicans [19] = assay: Synergistic antifungal activity against Candida albicans 0304103 assessed as reduction in fungal growth at 8 ug/ml incubated for 48 hrs in presence of FLC by time-kill assay; format: functional; conditions: dose 8 µg/ml
Candida albicans [20] = assay: Synergistic antifungal activity against FLC-resistant Candida albicans 710513 assessed as fungal growth inhibition incubated for 48 hrs in presence of FLC by broth microdilution method; format: functional
[21] = Tmax in Sprague-Dawley rat at 5 mg/kg, po by LC-MS/MS analysis; format: ADME, organism-based; conditions: in vivo
Candida albicans [22] = assay: Synergistic antifungal activity against FLC-resistant Candida albicans 953 assessed as fractional inhibitory concentration index incubated for 48 hrs in presence of FLC by broth microdilution method; format: functional
Candida albicans [23] = assay: Antifungal activity against Candida albicans SC5314 assessed as fungal growth inhibition incubated for 48 hrs in presence of Cu2+ by broth microdilution method (reference value: 0.0625 ug/ml); format: functional
[24] = C0 in Sprague-Dawley rat at 2 mg/kg, iv by LC-MS/MS analysis; format: ADME, organism-based; conditions: in vivo
Candida albicans [25] = assay: Synergistic antifungal activity against FLC-resistant Candida albicans 8 assessed as fungal growth inhibition incubated for 48 hrs in presence of FLC by broth microdilution method; format: functional
Candida albicans [26] = assay: Synergistic antifungal activity against FLC-resistant Candida albicans 540 assessed as fractional inhibitory concentration index incubated for 48 hrs in presence of FLC by broth microdilution method; format: functional
Candida albicans [27] = assay: Synergistic antifungal activity against FLC-resistant Candida albicans 241 assessed as MIC of FLC incubated for 48 hrs by broth microdilution method; format: functional
Candida albicans [28] = assay: Synergistic antifungal activity against FLC-resistant Candida albicans 12 assessed as MIC of FLC incubated for 48 hrs by broth microdilution method; format: functional
Candida albicans [29] = assay: Synergistic antifungal activity against FLC-resistant Candida albicans 1221 assessed as MIC of FLC incubated for 48 hrs by broth microdilution method; format: functional
Candida albicans [30] = assay: Synergistic antifungal activity against FLC-resistant Candida albicans 819 assessed as MIC of FLC incubated for 48 hrs by broth microdilution method; format: functional
Candida albicans [31] = assay: Synergistic antifungal activity against FLC-resistant Candida albicans 512681 assessed as fungal growth inhibition incubated for 48 hrs in presence of FLC by broth microdilution method; format: functional
Candida albicans [32] = assay: Synergistic antifungal activity against FLC-resistant Candida albicans 512644 assessed as MIC of FLC incubated for 48 hrs by broth microdilution method; format: functional
Candida albicans [33] = assay: Synergistic antifungal activity against FLC-resistant Candida albicans 540 assessed as MIC of FLC incubated for 48 hrs by broth microdilution method; format: functional
Candida albicans [34] = assay: Synergistic antifungal activity against FLC-resistant Candida albicans 819 assessed as fungal growth inhibition incubated for 48 hrs in presence of FLC by broth microdilution method; format: functional
Candida albicans [35] = assay: Synergistic antifungal activity against FLC-resistant Candida albicans 646 assessed as fungal growth inhibition incubated for 48 hrs in presence of FLC by broth microdilution method; format: functional
Candida albicans [36] = assay: Synergistic antifungal activity against FLC-resistant Candida albicans 8 assessed as fractional inhibitory concentration index incubated for 48 hrs in presence of FLC by broth microdilution method; format: functional
Candida albicans [37] = assay: Synergistic antifungal activity against FLC-resistant Candida albicans 10 assessed as MIC of FLC incubated for 48 hrs by broth microdilution method; format: functional
Candida albicans [38] = assay: Synergistic antifungal activity against FLC-resistant Candida albicans 12 assessed as fractional inhibitory concentration index incubated for 48 hrs in presence of FLC by broth microdilution method; format: functional
Candida albicans [39] = assay: Synergistic antifungal activity against FLC-resistant Candida albicans 710513 assessed as MIC of FLC incubated for 48 hrs by broth microdilution method; format: functional
Candida albicans [40] = assay: Antifungal activity against Candida albicans SC5314 infected in C57BL/6 mouse assessed as mean fungal burden at 2 mg/kg, ip measured after 46 hrs in presence of FLC by plate count method (reference value: 6.902 log10CFU/ml); format: functional
[41] = Toxicity in C57BL/6 mouse infected with Candida albicans SC5314 assessed as animal death at 2 mg/kg, ip measured after 7 days; format: organism-based; conditions: in vivo, 168 h, time 7 day

SMILES: OC(Cn1cncn1)(Cn1cncn1)c1ccc(F)cc1F [FLUCONAZOLE]
- Activity [1]: Toxic

SMILES: CCN(CC)c1ccc(C(NC(=O)C(C)C)c2ccc3cccnc3c2O)cc1 (stereo unspecified)
- inhibition (Candida albicans [2]): Active
- MIC (Candida albicans [3]): 0.125 µg/mL
- MIC (Candida albicans [4]): 0.016 µg/mL
- half-life [5]: 1 h
- fractional inhibitory concentration index (FICI) (Candida albicans [6]): 0.035
- MIC (Candida albicans [7]): 1 µg/mL
- MIC (Candida albicans [8]): 0.031 µg/mL
- Survival [9]: 20%
- fractional inhibitory concentration index (FICI) (Candida albicans [10]): 0.035
- MIC (Candida albicans [11]): 0.5 µg/mL
- INH [12]: > 50 µM
- half-life [13]: 5.28 h
- fractional inhibitory concentration index (FICI) (Candida albicans [14]): 0.126
- bioavailability [15]: 5.7%
- inhibition at 4 µg/mL (Candida albicans [16]): 7.44%
- MIC (Candida albicans [17]): 0.5 µg/mL
- MIC (Candida albicans [18]): 0.125 µg/mL
- Activity (Candida albicans [19]): >3 log10CFU/ml
- MIC (Candida albicans [20]): 0.016 µg/mL
- Tmax [21]: 0.25 h
- fractional inhibitory concentration index (FICI) (Candida albicans [22]): 0.032
- MIC (Candida albicans [23]): 128 µg/mL
- C0 [24]: 2460 ng/mL
- MIC (Candida albicans [25]): 0.031 µg/mL
- fractional inhibitory concentration index (FICI) (Candida albicans [26]): 0.064
- MIC (Candida albicans [27]): 1 µg/mL
- MIC (Candida albicans [28]): 1 µg/mL
- MIC (Candida albicans [29]): 0.125 µg/mL
- MIC (Candida albicans [30]): 0.25 µg/mL
- MIC (Candida albicans [31]): 0.031 µg/mL
- MIC (Candida albicans [32]): 2 µg/mL
- MIC (Candida albicans [33]): 0.25 µg/mL
- MIC (Candida albicans [34]): 0.016 µg/mL
- MIC (Candida albicans [35]): 0.016 µg/mL
- fractional inhibitory concentration index (FICI) (Candida albicans [36]): 0.252
- MIC (Candida albicans [37]): 0.25 µg/mL
- fractional inhibitory concentration index (FICI) (Candida albicans [38]): 0.062
- MIC (Candida albicans [39]): 1 µg/mL
- Activity (Candida albicans [40]): 5.244 log10CFU/ml

SMILES: Oc1c(I)cc(Cl)c2cccnc12 [CLIOQUINOL]
- Activity [41]: Non-Toxic
